Measurements from patent EP0594890A1, “Polycyclic compounds, their preparation and their use as phosphodiesterases inhibitors” (TSUMURA & CO., priority 1992, dated 1994).

Key:
Bovine heart PDE = Bovine heart PDE inhibition activity; format: biochemical; settings: substrate [³H]-cyclic AMP, 37°C for 30 minutes; compound concentration not given
Protocol: [Bovine heart PDE inhibition activity]
Placed in a test tube were 50 µℓ of 0.5 M tris-HCl buffer (pH 7.5), 50 µℓ of 50 mM magnesium chloride, 50 µℓ of an enzyme solution (bovine heart, product of Boheringer Mannheim Yamanouchi Co., Ltd.), and a dimethylsulfoxide (DMSO) solution of the compound obtained in each example. Purified water was then added to a total volume of 450 µℓ, followed by incubation at 37°C for 3 minutes. Then, 50 µℓ or [³H]-cyclic AMP (0.01 mM, 1.0 x 1.0⁻⁶ dpm) as a substrate were added to initiate a reaction. After incubated at 37°C for 30 minutes, the test tube was heated for 3 minutes in a boiling water bath to terminate the reaction. After cooling, snake venem (500 µg) was added, followed by incubation at 37°C for 30 minutes. An ion-exchange resin ("Dowex-AG1-X8", trade name) was then added, followed by stirring and centrifugation. A supernatant was sampled and its radioactivity was measured by a liquid scintillation counter. Percent inhibition was determined in accordance with the following formula: [formula] where, C: Radioactivity when the compound in the example was not contained. S: Radioactivity when the compound in the example was added.

[1] = tested on: Platelet phosphodiesterase (PDE); assay: Platelet phosphodiesterase (PDE) inhibition activity in washed platelets; format: biochemical, rabbit; settings: 500 µM as the final concentration of the compound; washed platelet mixture; substrate [³H]-cyclic AMP, 37°C for 30 minutes
From the text: [Preparation of washed platelets]
A rabbit was held on its back on a fixing table and, under non-anesthesia, the leg femoral artery was cannulated. Next, 2 mℓ of a 3.8% aqueous solution of sodium citrate were placed in a 20-mℓ plastic syringe and 18 mℓ of the arterial blood were collected. The syringe was caused to fall down 2-3 times so that its contents were mixed. The above procedures were repeated using 3-4 syringes. The blood so collected was transferred into a plastic-made test tube and centrifuged at 800 rpm for 10 minutes at room temperature to settle blood cells, whereby an upper layer (PRP) was obtained. The PRP was next centrifuged at 3000 rpm for 10 minutes so that platelets were collected. After 12.3 mM tris-HCl buffer (pH 7.4) containing 0.137 M of NaCl, 1.54 mM of EDTA and 20 mM of glucose was added to the platelets and pipetting was conducted thoroughly, centrifugation was conducted at 3000 rpm for 10 minutes. The above procedures were repeated twice. Precipitated platelets were re-suspended in the above tris-HCl buffer at a platelet concentration of 6.5 x 10⁻⁶ platelets/µℓ. They were used as washed platelets in the subsequent experiments.
[Platelet phosphodiesterase (PDE) inhibition activity]
Placed in a test tube were 50 µℓ of 0.5 M tris-HCl buffer (pH 7.5), 50 µℓ of 50 mM magnesium chloride, 200 µℓ of the washed platelet mixture, and a dimethylsulfoxide (DMSO) solution of the compound (500 µM as the final concentration of the compound) obtained in each example. Purified water was added to a total volume of 450 µℓ, followed by incubation at 37°C for 3 minutes. Then, 50 µℓ off [³H]-cyclic AMP (0.01 mM, 1.0 x 1.0⁻⁶ dpm) as a substrate were added to initiate a reaction. […] A supernatant was sampled and its radioactivity was measured by a liquid scintillation counter. Percent inhibition was determined in accordance with the following formula: [formula] where, C: Radioactivity when the compound in the example was not contained. S: Radioactivity when the compound in the example was added.

Row | SMILES | Inhibition rate (%) Bovine heart PDE (Bovine heart PDE) [%] | Inhibition rate (%) Platelet PDE [1] [%]
1 | COc1cc2c(c(OC)c1OC)-c1c(cc3c(c1OC)OCO3)C[C@@H]1COC(=O)C1=C2 (single isomer, unassigned) [Test Compound 4, (3as,Sbiar)-3a,4-Dihydro-8,9,10,11-tetramethoxy-6,7-methylenedioxydibenzo[4,5:6,7]cycloocta-[1,2-c]furan-1(3H)-one] | 0.0 | 23.1
2 | COc1cc2c(c(OC)c1OC)-c1c(cc(O)c(O)c1OC)C[C@@H]1COC(=O)C1=C2 [Test Compound 1, (3aS,Rbiar)-3a,4-Dihydro-6,7-dihydroxy-8,9,10,11-tetramethoxydibenzo[4,5:6,7)cycloocta[1,2-c]furan-1(3H)-one] | 85.0 | –
3 | COc1cc2c(c(OC)c1OC)-c1c(cc(O)c(O)c1OC)CC1COC(=O)C1=C2 (stereo not drawn) [Test Compound 6, (3aRS,SRbiar)-3a,4-Dihydro-6,7-dihydroxy-8,9,10,11-tetramethoxydibenzo[4,5:6,7]cycloocta[1,2-c]-furan-1(3H)-one] | 90.5 | –
4 | COc1cc2c(c(OC)c1OC)-c1c(cc(OC)c3c1OCO3)C[C@@H]1COC(=O)C1=C2 [Test Compound 3, (3aS,Rbiar)-3a,4-Dihydro-6,9,10,11-tetramethoxy-7,8-methylenedioxydibenzo[4,5:6,7)cycloocta[1,2-c]furan-1(3H)-one] | 19.5 | –
5 | COc1cc2c(c(OC)c1OC)-c1c(cc3c(c1OC)OCO3)C[C@@H]1COC(=O)C1=C2 (single isomer, unassigned) [Test Compound 2] | 0.0 | 25.3
6 | COc1cc2c(c(OC)c1OC)-c1c(cc(OC)c(OC)c1OC)C[C@@H]1COC(=O)C1=C2 (single isomer, unassigned) [Test Compound 7] | 50.9 | –
7 | COc1cc2c(c(OC)c1OC)-c1c(cc(OC)c(OC)c1OC)C[C@@H]1COC(=O)C1=C2 (single isomer, unassigned) [Test Compound 8] | 36.3 | –
8 | COc1cc2c(c(OC)c1OC)-c1c(cc(OC)c3c1OCO3)C[C@H]1COC(=O)C1=C2 [Test Compound 5, (3aR,Sbiar)-3a,4-Dihydro-6,9,10,11-tetramethoxy-7,8-methylenedioxybenzo[4,5:6,7]cycloocta[1,2-c]furan-1(3H)-one] | 2.8 | 44.0
